Results published in patent publication US6825201B2 (priority 2001, dated 2004).

These compounds were tested on HIV-1 single-round infectious reporter virus (assay: microbe, parasite or virus in culture). Conditions: HeLa CD4 CCR5 cells, single-round HIV-1 reporter virus, MOI 0.01, luciferase read 72 hours after infection; read-out: EC50 Range.
Type: cell-based
Experimental: Virus infection—Human epithelial cell line, HeLa, expressing the HIV-1 receptors CD4 and CCR5 was propagated in Dulbecco's Modified Eagle Medium (Life Technologies, Gaithersburg, Md.) containing 10% fetal Bovine serum (FBS, Sigma, St. Louis, Mo.) and supplemented with 0.2 mg/ml Geneticin (Life Technologies, Gaithersburg, Md.) and 0.4 mg/ml Zeocin (Invitrogen, Carlsbad, Calif.).
Transfections were performed using lipofectAMINE PLUS reagent as described by the manufacturer (Life Technologies, Gaithersburg, Md.).
1. Compound was added to HeLa CD4 CCR5 cells plated in 96 well plates at a cell density of 5×10^4 cells per well in 100 μl Dulbecco's Modified Eagle Medium containing 10% fetal Bovine serum at a concentration of <20 μM.
2. 100 μl of single-round infectious reporter virus in Dulbecco's Modified Eagle Medium was then added to the plated cells and compound at an approximate multiplicity of infection (MOI) of 0.01, resulting in a final volume of 200 μl per well and a final compound concentration of <10 μM.
3. Samples were harvested 72 hours after infection.
4. Viral infection was monitored by measuring luciferase expression from viral DNA in the infected cells using a luciferase reporter gene assay kit (Roche Molecular Biochemicals, Indianapolis, Ind.). Infected cell supernatants were removed and 50 μl of Dulbecco's Modified Eagle Medium (without phenol red) and 50 μl of luciferase assay reagent reconstituted as described by the manufacturer (Roche Molecular Biochemicals, Indianapolis, Ind.) was added per well. Luciferase activity was then quantified by measuring luminescence using a Wallac microbeta scintillation counter.
5. An EC50 provides a method for comparing the antiviral potency of the compounds of this invention. The effective concentration for fifty percent inhibition (EC50) was calculated with the Microsoft Excel Xlfit curve fitting software.
“N-(benzoyl)-N′-[(4-fluorol-indolin-3-yl)-acetyl]-piperazine [Example 21]” gave an EC50 of under 1 µM.

Same assay, conditions: Human immunodeficiency virus 1, HeLa-CD4/CCR5, 72 h, read-out: EC50 Range
For `CCCCNc1c(C(=O)C(=O)N2CCN(C(=O)c3ccccc3)CC2)cnc2c1cnn2CC` [Example 14], the EC50 was over 5 µM. `O=C(c1ccccc1)N1CCN(C(=O)c2c[nH]c3cccc(F)c23)CC1` [Example 29] was tested, and the EC50 was under 1 µM. `O=C(C(=O)N1CCN(C(=O)c2ccccc2)CC1)c1cccc2[nH]ccc12` [Example 22, 1-(4-benzoyl-piperazin-1-yl)-2-(1H-indol-4-yl)-ethane-1,2-dione] was tested, and the EC50 was under 1 µM. `COc1ccc(C#N)c2[nH]cc(C(=O)N3CCN(C(=O)c4ccccc4)C[C@H]3C)c12` [Example 28] showed an EC50 of over 0.5 µM. `O=C(C(=O)N1CCN(C(=O)c2ccccc2)CC1)c1cc2ccccc2s1` [Example 19, 1-(benzoyl)-4-[(benzothiophen-2-yl)-2-oxoacetyl]piperazine] was tested, and the EC50 was 1 to 5 µM. Compound `CNC(=O)c1ccc(F)c2c(C(O)C(=O)N3CCN(C(=O)c4ccccc4)CC3)c[nH]c12` (centres unmarked) [Example 32, 3-[2-(4-Benzoyl-piperazin-1-yl)-1-hydroxy-2-oxo-ethyl]-4-fluoro-1H-indole-7-carboxylic acid methylamide] has an EC50 of under 1 µM. With `COc1cccc2occ(C(=O)C(C#N)N3CCN(C(=O)c4ccccc4)CC3)c12` (centres unmarked) [Example 3] the EC50 was under 1 µM. Compound `COc1ccc2cc(C(=O)C(C#N)N3CCN(C(=O)c4ccccc4)CC3C)[nH]c2c1` (centres unmarked) [Example 2] has an EC50 of under 1 µM. `CC1CN(C(=O)c2ccccc2)CCN1C(=O)C(=O)c1cc2cc(Cl)ccc2[nH]1` (centres unmarked) [Example 9] was tested, and the EC50 was under 1 µM. In the case of `COc1ccc(-c2nc(C)n[nH]2)c2[nH]cc(C(=O)N3CCN(C(=O)c4ccccc4)CC3)c12` [Example 26], the EC50 is reported as 1 to 5 µM. For `CCCCNc1c(C(=O)C(=O)N2CCN(C(=O)c3ccccc3)CC2C)cnc2c1cnn2CC` (centres unmarked) [Example 13], the EC50 was under 1 µM. Compound `O=C(C(=O)N1CCN(C(=O)c2ccccc2)CC1)c1cc2ccccc2[nH]1` [Example 5, 1-(benzoyl)-4-[(indol-2-yl)-2-oxoacetyl]piperazine] has an EC50 of under 1 µM. With `COc1ccc(C#N)c2[nH]cc(C(=O)N3CCN(C(=O)c4ccccc4)CC3)c12` [Example 27] the EC50 was over 0.5 µM. `CC1CN(C(=O)c2ccccc2)CCN1C(=O)C(=O)c1cc2cc(F)ccc2[nH]1` (centres unmarked) [Example 8] was tested, and the EC50 was under 1 µM. `O=C(C(=O)N1CCN(C(=O)c2ccccc2)CC1)c1csc2ccccc12` [Example 18, 1-(benzoyl)-4-[(benzothiophen-3-yl)-2-oxoacetyl]piperazine] was tested, and the EC50 was 1 to 5 µM. `COc1c(C(=O)C(=O)N2CCN(C(=O)c3ccccc3)CC2)cnc2c1c(C)nn2C` [Example 10] showed an EC50 of 1 to 5 µM. Work on `COc1cccc2occ(C(=O)C(=O)N3CCN(C(=O)c4ccccc4)CC3)c12` [Example 6] yielded an EC50 of over 0.5 µM. With `CNC(=O)c1ccc(F)c2c(CC(=O)N3CCN(C(=O)c4ccccc4)CC3)c[nH]c12` [Example 31, 3-[2-(4-Benzoyl-piperazin-1-yl)-2-oxo-ethyl]-4-fluoro-1H-indole-7-carboxylic acid methylamide] the EC50 was 1 to 5 µM. Work on `COc1c(C(=O)C(=O)N2CCN(C(=O)c3ccccc3)CC2C)cnc2c1c(C)nn2C` (centres unmarked) [Example 12] yielded an EC50 of 1 to 5 µM.
